The text below walks through data of publication PMC6151383 (Molecules : A Journal of Synthetic Chemistry and Natural …, 2017).

In brackets after ≈: the same amount, converted by molar mass. Where two headings read alike, the source gives them in different places.

The subject of one data set is Candida glabrata 20/I. The experiment in a line: Antifungal microdilution broth MIC, C. glabrata. It is filed as cell-based. Particulars: Nakaseomyces glabratus. For orientation: Dilution methods test growth across graded concentrations, often in twofold steps.
Another data set deals with Candida krusei E28. The data set is described as follows: Antifungal microdilution broth MIC, C. krusei. It counts as cell-based. The settings on record: Pichia kudriavzevii.
Data set [1] has as its system Staphylococcus aureus CCM 4516/08. The experiment in a line: Antibacterial microdilution broth MIC, S. aureus. Particulars: Staphylococcus aureus, CCM4516; 48 h incubation; read-out: MIC SA 48 h. It is filed as cell-based.
Data set [2] deals with Lichtheimia corymbifera 272. The experiment in a line: Antifungal microdilution broth MIC, L. corymbifera. Particulars: Lichtheimia corymbifera, 272; 48 h incubation; read-out: MIC LC 48 h. It counts as cell-based.
In data set [3] the test system is Mycobacterium avium 330/88. The data set is described as follows: In vitro antimycobacterial MIC, M. avium. It counts as cell-based.
For data set [4], the system named is Candida albicans ATCC 44859. The data set is described as follows: Antifungal microdilution broth MIC, C. albicans. It counts as cell-based.
Data set [5] concerns Pseudomonas aeruginosa CCM 1961. The experiment in a line: Antibacterial microdilution broth MIC, P. aeruginosa. The settings on record: Pseudomonas aeruginosa, CCM1961; 48 h incubation; read-out: MIC PA 48 h. It is filed as cell-based.
Data set [6] has as its system Klebsiella pneumoniae D 11750/08.
Data set [7] deals with Trichophyton interdigitale 445. The experiment in a line: Antifungal microdilution broth MIC, T. interdigitale. It counts as cell-based. Particulars: Trichophyton interdigitale, 445.
In data set [8] the test system is Mycobacterium tuberculosis 331/88 (H37Rv). The experiment in a line: In vitro antimycobacterial MIC, M. tuberculosis. It is filed as cell-based.
The test system of data set [9] is ESBL-positive Klebsiella pneumoniae J 14368/08.
In data set [10] the test system is Mycobacterium kansasii 235/80. The experiment in a line: In vitro antimycobacterial MIC, M. kansasii 235/80. It counts as cell-based.
For data set [11], the system named is Escherichia coli CCM 4517. The experiment in a line: Antibacterial microdilution broth MIC, E. coli. The settings on record: Escherichia coli, CCM4517; 48 h incubation; read-out: MIC EC 48 h. It counts as cell-based.
A further data set relates to Trichosporon asahii 1188. The experiment in a line: Antifungal microdilution broth MIC, T. asahii. It counts as cell-based.
Another data set deals with Candida tropicalis 156. The data set is described as follows: Antifungal microdilution broth MIC, C. tropicalis. It is filed as cell-based.
The subject of data set [12] is Enterococcus faecalis J 14365/08. The data set is described as follows: Antibacterial microdilution broth MIC, E. faecalis. It counts as cell-based. The settings on record: Enterococcus faecalis, J14365/08; 48 h incubation; read-out: MIC EF 48 h.
In data set [13] the test system is Staphylococcus epidermidis H 6966/08. The data set is described as follows: Antibacterial microdilution broth MIC, S. epidermidis. It counts as cell-based. Particulars: Staphylococcus epidermidis.
The test system of data set [14] is Aspergillus fumigatus 231. The experiment in a line: Antifungal microdilution broth MIC, A. fumigatus. It is filed as cell-based. Particulars: Aspergillus fumigatus, 231; 48 h incubation; read-out: MIC AF 48 h.
In the next data set the test system is M. kansasii 6509/96. The experiment in a line: In vitro antimycobacterial MIC, M. kansasii clinical isolate. It is filed as cell-based. Particulars: Mycobacterium kansasii.
The mark [15] stands for this setting: 330/88, 336 h, 14 d incubation, read-out: MIC M. avium 330/88 14 d.
The mark [16] stands for this setting: 330/88, 504 h, 21 d incubation, read-out: MIC M. avium 330/88 21 d.
Where [17] appears, read: ATCC44859, 24 h, read-out: MIC CA 24 h.
[18] abbreviates: ATCC44859, 48 h, read-out: MIC CA 48 h.
[19] abbreviates: 72 h incubation, read-out: MIC TI 72 h.
Where [20] appears, read: 120 h incubation, read-out: MIC TI 120 h.
The mark [21] stands for this setting: 336 h, 14 d incubation, read-out: MIC Mtb. 331/88 14 d.
Where [22] appears, read: 504 h, 21 d incubation, read-out: MIC Mtb. 331/88 21 d.
[23] abbreviates: 235/80, 168 h, 7 d incubation, read-out: MIC M. kansasii 235/80 7 d.
Where [24] appears, read: 235/80, 336 h, 14 d incubation, read-out: MIC M. kansasii 235/80 14 d.
[25] abbreviates: 235/80, 504 h, 21 d incubation, read-out: MIC M. kansasii 235/80 21 d.
Setting [26] is: Trichosporon asahii, 1188, 24 h, read-out: MIC TA 24 h.
Setting [27] is: Trichosporon asahii, 1188, 48 h, read-out: MIC TA 48 h.
The mark [28] stands for this setting: Candida tropicalis, 156, 24 h, read-out: MIC CT 24 h.
The mark [29] stands for this setting: Candida tropicalis, 156, 48 h, read-out: MIC CT 48 h.
Setting [30] is: 6509/96, 168 h, 7 d incubation, read-out: MIC M. kansasii 6509/96 7 d.
Setting [31] is: 6509/96, 336 h, 14 d incubation, read-out: MIC M. kansasii 6509/96 14 d.
[32] abbreviates: 6509/96, 504 h, 21 d incubation, read-out: MIC M. kansasii 6509/96 21 d.
Setting [33] is: E28, 48 h incubation, read-out: MIC CK 48 h.

As for `O=S(=O)(Nc1ncccn1)c1ccc(N=Cc2cc(I)ccc2O)cc1` [Compound 2e, 4-[(2-Hydroxy-5-iodobenzylidene)amino]-N-(pyrimidin-2-yl)benzenesulfonamide], the MIC with Candida glabrata 20/I (24 h, read-out: MIC CG 24 h) is 62.5 µM (≈ 30 µg/mL); in the data set on Candida glabrata 20/I (48 h, read-out: MIC CG 48 h) it was 62.5 µM (≈ 30 µg/mL); with Candida krusei E28 (E28, 24 h, read-out: MIC CK 24 h), 62.5 µM (≈ 30 µg/mL); in the data set with Candida krusei E28 (E28, 48 h, read-out: MIC CK 48 h), 125 µM (≈ 60 µg/mL); in data set [1], 250 µM (≈ 120 µg/mL); in data set [2] it was over 500 µM. For the same molecule, the MIC stood at 125 µM (≈ 60 µg/mL) in data set [3] (setting [15]); 250 µM (≈ 120 µg/mL) in [3] (setting [16]); 62.5 µM (≈ 30 µg/mL) in data set [4] (setting [17]); 125 µM (≈ 60 µg/mL) in data set [4] (setting [18]); 500 µM (≈ 240 µg/mL) in data set [5]; 31.2 µM (≈ 15 µg/mL) in data set [7] (setting [19]). The MIC in data set [7] (setting [20]) stood at 31.2 µM (≈ 15 µg/mL); in data set [8] (setting [21]) it was 62.5 µM (≈ 30 µg/mL); in data set [8] (setting [22]), 125 µM (≈ 60 µg/mL); in [10] (setting [23]), 32 µM (≈ 15.4 µg/mL); in data set [10] (setting [24]) it was 62.5 µM (≈ 30 µg/mL); in data set [10] (setting [25]) it was 125 µM (≈ 60 µg/mL). Also, the MIC is 250 µM (≈ 120 µg/mL) in data set [11]; 125 µM (≈ 60 µg/mL) with Trichosporon asahii 1188 (setting [26]); 125 µM (≈ 60 µg/mL) with Trichosporon asahii 1188 (setting [27]); 125 µM (≈ 60 µg/mL) in the data set on Candida tropicalis 156 (setting [28]); 125 µM (≈ 60 µg/mL) with Candida tropicalis 156 (setting [29]); 500 µM (≈ 240 µg/mL) in [12]. Further, the MIC in data set [13] (H6966/08, 24 h, read-out: MIC SE 24 h) amounted to 62.5 µM (≈ 30 µg/mL); in data set [13] (H6966/08, 48 h, read-out: MIC SE 48 h), 125 µM (≈ 60 µg/mL); in [14], 250 µM (≈ 120 µg/mL); in the data set on M. kansasii 6509/96 (setting [30]) it was 32 µM (≈ 15.4 µg/mL); in the data set with M. kansasii 6509/96 (setting [31]), 32 µM (≈ 15.4 µg/mL); with M. kansasii 6509/96 (setting [32]), 62.5 µM (≈ 30 µg/mL). Besides, the “MIC KP 24 h” value in data set [6] amounted to 500 µM (≈ 240 µg/mL). The “MIC KP 48 h” value in data set [6] was found to be 500 µM (≈ 240 µg/mL). In addition, the “MIC KP-E 24 h” value in data set [9] came out at 500 µM (≈ 240 µg/mL). Also, the “MIC KP-E 48 h” value in data set [9] came to 500 µM (≈ 240 µg/mL).

As to `O=S(=O)(Nc1ncccn1)c1ccc(N=Cc2cccc(Cl)c2O)cc1` [Compound 2l, 4-[(3-Chloro-2-hydroxybenzylidene)amino]-N-(pyrimidin-2-yl)benzenesulfonamide], the MIC with Candida glabrata 20/I (24 h, read-out: MIC CG 24 h) is 125 µM (≈ 48.6 µg/mL); in the data set with Candida glabrata 20/I (48 h, read-out: MIC CG 48 h), 125 µM (≈ 48.6 µg/mL); with Candida krusei E28 (setting [33]) it was 250 µM (≈ 97.2 µg/mL); in data set [1], over 500 µM; in data set [2], over 500 µM; in data set [3] (setting [15]) it was 125 µM (≈ 48.6 µg/mL). The MIC is 250 µM (≈ 97.2 µg/mL) in [3] (setting [16]); 62.5 µM (≈ 24.3 µg/mL) in [4] (setting [17]); 62.5 µM (≈ 24.3 µg/mL) in data set [4] (setting [18]); over 500 µM in [5]; 31.2 µM (≈ 12.2 µg/mL) in [7] (setting [19]); 31.2 µM (≈ 12.2 µg/mL) in data set [7] (setting [20]). The MIC in data set [8] (setting [21]) was 32 µM (≈ 12.4 µg/mL); in data set [8] (setting [22]) it was 62.5 µM (≈ 24.3 µg/mL); in [10] (setting [23]), 16 µM (≈ 6.22 µg/mL); in data set [10] (setting [24]), 32 µM (≈ 12.4 µg/mL); in [10] (setting [25]), 62.5 µM (≈ 24.3 µg/mL); in [11], over 500 µM. Also, the MIC in the data set with Trichosporon asahii 1188 (setting [26]) was 125 µM (≈ 48.6 µg/mL); in the data set on Trichosporon asahii 1188 (setting [27]), 125 µM (≈ 48.6 µg/mL); in the data set on Candida tropicalis 156 (setting [28]), 125 µM (≈ 48.6 µg/mL); in the data set on Candida tropicalis 156 (setting [29]) it was 125 µM (≈ 48.6 µg/mL); in [12], over 500 µM; in data set [13] (H6966/08, 48 h incubation, read-out: MIC SE 48 h) it was over 500 µM. Moreover, the MIC in data set [14] was 250 µM (≈ 97.2 µg/mL); in the data set with M. kansasii 6509/96 (setting [30]) it was 16 µM (≈ 6.22 µg/mL); in the data set with M. kansasii 6509/96 (setting [31]), 16 µM (≈ 6.22 µg/mL); in the data set with M. kansasii 6509/96 (setting [32]) it was 32 µM (≈ 12.4 µg/mL). For the same molecule, the “MIC KP 24 h” value in data set [6] is on record as over 500 µM. For the same molecule, in [6], the “MIC KP 48 h” value was over 500 µM. In addition, the “MIC KP-E 24 h” value in [9] is listed as over 500 µM. For the same molecule, the “MIC KP-E 48 h” value in data set [9] was over 500 µM.

In the case of `NNC(=O)c1ccncc1` [INH, isoniazid, reference compound], the MIC in data set [3] (setting [15]) was over 250 µM; in data set [3] (setting [16]), over 250 µM; in [8] (setting [21]), 0.5 µM (≈ 0.0686 µg/mL); in data set [8] (setting [22]), 1 µM (≈ 0.137 µg/mL); in data set [10] (setting [23]), over 250 µM; in data set [10] (setting [24]), over 250 µM. Further, the MIC in [10] (setting [25]) is over 250 µM; in the data set on M. kansasii 6509/96 (setting [30]), 8 µM (≈ 1.1 µg/mL); in the data set on M. kansasii 6509/96 (setting [31]), 8 µM (≈ 1.1 µg/mL); in the data set on M. kansasii 6509/96 (setting [32]) it was 8 µM (≈ 1.1 µg/mL).

Turning to `OC(Cn1cncn1)(Cn1cncn1)c1ccc(F)cc1F` [FLU, fluconazole, reference compound], the MIC with Candida glabrata 20/I (48 h incubation, read-out: MIC CG 48 h) is 500 µM (≈ 153 µg/mL); in the data set on Candida krusei E28 (setting [33]), 250 µM (≈ 76.6 µg/mL); in [2], over 500 µM; in data set [4] (ATCC44859, 48 h incubation, read-out: MIC CA 48 h), 0.24 µM (≈ 0.0735 µg/mL); in [7] (setting [19]) it was 7.81 µM (≈ 2.39 µg/mL); in data set [7] (setting [20]), 125 µM (≈ 38.3 µg/mL). Moreover, the MIC is 500 µM (≈ 153 µg/mL) in the data set with Trichosporon asahii 1188 (Trichosporon asahii, 1188, 48 h incubation, read-out: MIC TA 48 h); over 500 µM in the data set with Candida tropicalis 156 (Candida tropicalis, 156, 48 h incubation, read-out: MIC CT 48 h); over 500 µM in data set [14].
